How the values were obtained:
cytochrome P450 1A2 = target: T1, cytochrome P450 1A2 (Homo sapiens, UniProt P05177); experiment: Inhibitory activity on cytochrome P450 1A2; assay type: in vitro ADME; conditions: no significant inhibition
T1 sequence (P05177 1-516): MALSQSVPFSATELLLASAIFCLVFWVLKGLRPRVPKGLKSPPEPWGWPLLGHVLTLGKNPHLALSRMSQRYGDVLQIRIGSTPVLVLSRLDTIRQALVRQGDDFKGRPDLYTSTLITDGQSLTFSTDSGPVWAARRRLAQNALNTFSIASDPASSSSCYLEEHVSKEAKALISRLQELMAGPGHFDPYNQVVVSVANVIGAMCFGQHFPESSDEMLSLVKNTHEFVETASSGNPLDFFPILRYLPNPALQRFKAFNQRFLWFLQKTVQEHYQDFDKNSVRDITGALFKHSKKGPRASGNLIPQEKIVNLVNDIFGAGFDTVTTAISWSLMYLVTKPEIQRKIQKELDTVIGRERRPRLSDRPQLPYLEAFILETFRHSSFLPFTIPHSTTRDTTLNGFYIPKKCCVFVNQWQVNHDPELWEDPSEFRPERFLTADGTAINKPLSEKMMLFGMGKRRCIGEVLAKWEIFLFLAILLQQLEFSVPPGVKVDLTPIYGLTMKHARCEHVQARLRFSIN

cytochrome P450 2C19 = cytochrome P450 2C19 (Homo sapiens, UniProt P33261); experiment: Inhibitory activity on cytochrome P450 2C19; assay type: in vitro ADME; conditions: no significant inhibition
cytochrome P450 2C19, sequence (P33261 whole entry): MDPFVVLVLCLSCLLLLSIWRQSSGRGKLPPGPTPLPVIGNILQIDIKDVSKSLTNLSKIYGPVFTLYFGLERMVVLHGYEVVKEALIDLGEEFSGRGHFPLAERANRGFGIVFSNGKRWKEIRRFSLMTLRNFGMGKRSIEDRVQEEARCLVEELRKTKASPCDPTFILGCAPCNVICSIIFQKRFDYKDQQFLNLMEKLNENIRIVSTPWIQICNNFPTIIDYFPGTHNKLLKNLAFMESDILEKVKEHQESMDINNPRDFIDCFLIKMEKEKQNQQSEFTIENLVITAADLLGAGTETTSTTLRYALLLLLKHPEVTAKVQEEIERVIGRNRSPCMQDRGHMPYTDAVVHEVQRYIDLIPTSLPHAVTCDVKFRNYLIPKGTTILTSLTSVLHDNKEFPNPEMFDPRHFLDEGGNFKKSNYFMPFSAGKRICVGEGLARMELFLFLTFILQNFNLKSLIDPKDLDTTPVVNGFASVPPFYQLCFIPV

cytochrome P450 3A4 = cytochrome P450 3A4 (Homo sapiens, UniProt P08684); experiment: Inhibitory activity on cytochrome P450 3A4; assay type: in vitro ADME; conditions: no significant inhibition
cytochrome P450 3A4, sequence (P08684 whole entry): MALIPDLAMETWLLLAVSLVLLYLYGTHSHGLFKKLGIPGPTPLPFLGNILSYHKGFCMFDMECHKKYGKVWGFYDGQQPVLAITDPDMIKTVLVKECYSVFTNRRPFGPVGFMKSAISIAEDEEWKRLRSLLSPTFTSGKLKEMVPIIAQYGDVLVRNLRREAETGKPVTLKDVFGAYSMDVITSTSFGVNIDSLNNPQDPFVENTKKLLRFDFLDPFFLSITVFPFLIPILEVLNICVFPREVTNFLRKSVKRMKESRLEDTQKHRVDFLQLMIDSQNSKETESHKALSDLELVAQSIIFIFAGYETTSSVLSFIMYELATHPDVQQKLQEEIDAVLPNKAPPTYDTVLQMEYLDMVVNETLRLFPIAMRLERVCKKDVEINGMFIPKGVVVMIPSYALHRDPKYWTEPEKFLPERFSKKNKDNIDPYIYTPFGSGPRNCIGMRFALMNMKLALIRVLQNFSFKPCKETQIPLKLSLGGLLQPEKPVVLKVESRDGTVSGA

cytochrome P450 2C9 = cytochrome P450 2C9 (Homo sapiens, UniProt P11712); experiment: Inhibitory activity on cytochrome P450 2C9; assay type: in vitro ADME; conditions: no significant inhibition
cytochrome P450 2C9, sequence (P11712 whole entry): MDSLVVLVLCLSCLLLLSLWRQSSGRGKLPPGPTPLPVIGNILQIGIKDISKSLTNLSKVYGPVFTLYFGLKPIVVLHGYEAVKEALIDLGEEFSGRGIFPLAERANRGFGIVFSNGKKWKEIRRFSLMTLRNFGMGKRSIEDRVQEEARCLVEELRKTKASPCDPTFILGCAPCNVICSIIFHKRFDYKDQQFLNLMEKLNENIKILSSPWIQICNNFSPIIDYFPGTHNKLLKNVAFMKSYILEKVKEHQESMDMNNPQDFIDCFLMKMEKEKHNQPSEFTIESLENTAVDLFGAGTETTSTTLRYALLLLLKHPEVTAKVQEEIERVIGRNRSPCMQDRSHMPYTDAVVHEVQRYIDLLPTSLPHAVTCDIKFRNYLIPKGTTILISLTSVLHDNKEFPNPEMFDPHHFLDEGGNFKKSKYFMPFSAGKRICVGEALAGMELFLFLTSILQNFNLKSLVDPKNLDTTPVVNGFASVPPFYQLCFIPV

L1196M mutant ALK kinase = target: T2, L1196M mutant ALK kinase (Homo sapiens, UniProt Q9UM73, L1196M); experiment: HTRF KinEASE-TK assay, inhibitory activity on L1196M mutant ALK kinase; assay type: biochemical; conditions: L1196M mutant ALK 1 ng/μl, substrate 1 μM, ATP 5 μM, 30° C. 35 minutes, read-out: Inhibition on ALK kinases (L1196M mutant), IC50
T2 construct: purchased Sino-US Crown Bioscience, Inc. batch number ALKm_20110923
T2 sequence (Q9UM73 19-1620 L1196M): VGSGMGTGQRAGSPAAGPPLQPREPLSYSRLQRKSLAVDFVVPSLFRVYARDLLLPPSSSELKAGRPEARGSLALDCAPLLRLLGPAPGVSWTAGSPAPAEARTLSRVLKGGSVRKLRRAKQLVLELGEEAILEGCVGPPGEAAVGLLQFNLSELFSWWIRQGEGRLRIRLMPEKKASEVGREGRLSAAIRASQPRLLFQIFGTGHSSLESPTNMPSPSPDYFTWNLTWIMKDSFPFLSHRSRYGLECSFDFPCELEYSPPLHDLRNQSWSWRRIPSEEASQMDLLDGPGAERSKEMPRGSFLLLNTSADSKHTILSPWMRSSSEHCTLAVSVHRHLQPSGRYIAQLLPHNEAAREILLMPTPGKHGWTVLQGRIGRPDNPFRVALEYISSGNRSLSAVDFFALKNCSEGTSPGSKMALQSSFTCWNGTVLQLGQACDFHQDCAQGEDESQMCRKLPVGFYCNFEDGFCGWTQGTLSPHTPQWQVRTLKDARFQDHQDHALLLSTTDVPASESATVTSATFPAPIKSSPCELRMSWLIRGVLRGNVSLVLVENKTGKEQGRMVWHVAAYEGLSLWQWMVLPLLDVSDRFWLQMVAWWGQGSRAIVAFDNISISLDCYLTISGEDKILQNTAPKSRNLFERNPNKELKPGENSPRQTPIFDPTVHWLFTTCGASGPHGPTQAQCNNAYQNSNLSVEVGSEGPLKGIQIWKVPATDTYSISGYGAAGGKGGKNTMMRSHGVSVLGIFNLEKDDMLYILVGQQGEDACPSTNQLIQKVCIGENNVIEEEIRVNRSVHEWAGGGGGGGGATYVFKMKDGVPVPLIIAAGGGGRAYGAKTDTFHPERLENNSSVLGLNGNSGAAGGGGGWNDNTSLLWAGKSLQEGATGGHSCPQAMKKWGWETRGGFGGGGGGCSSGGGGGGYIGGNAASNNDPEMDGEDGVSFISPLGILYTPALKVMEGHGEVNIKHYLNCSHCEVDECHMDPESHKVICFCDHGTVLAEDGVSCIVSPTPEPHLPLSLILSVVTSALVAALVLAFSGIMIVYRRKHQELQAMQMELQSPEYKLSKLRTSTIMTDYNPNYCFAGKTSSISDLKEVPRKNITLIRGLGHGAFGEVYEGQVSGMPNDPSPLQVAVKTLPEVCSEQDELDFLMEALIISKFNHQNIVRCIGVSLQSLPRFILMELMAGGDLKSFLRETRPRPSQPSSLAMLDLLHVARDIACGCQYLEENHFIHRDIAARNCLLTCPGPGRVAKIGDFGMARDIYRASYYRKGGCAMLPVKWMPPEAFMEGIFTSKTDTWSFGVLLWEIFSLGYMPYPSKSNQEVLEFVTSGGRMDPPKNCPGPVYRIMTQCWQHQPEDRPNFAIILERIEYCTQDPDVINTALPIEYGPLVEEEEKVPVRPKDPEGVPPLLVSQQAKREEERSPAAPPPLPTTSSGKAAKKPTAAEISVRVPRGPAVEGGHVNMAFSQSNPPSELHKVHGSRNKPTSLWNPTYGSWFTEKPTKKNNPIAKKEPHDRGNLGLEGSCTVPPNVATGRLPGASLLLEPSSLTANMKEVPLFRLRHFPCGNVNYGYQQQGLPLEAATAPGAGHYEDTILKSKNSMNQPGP
Source text: 2. Inhibitory Activities of the Compounds of the Present Invention on L1196M Mutant ALK Kinases
? experimental method ? HTRF KinEASE™-TK Assay kit from Cisbio company was used to detect inhibitory activities of the compounds on L1196M mutant ALK kinases.
(§1) ? instrument ? Envision 2104 plate reader from PerKinElmer company.
(§2) ? experiment material ? HTRF KinEASE™-TK Assay Kit (Cisbio company, catalog No. 62TK0PEC); L1196M mutant ALK kinase (produced by Sino-US Crown Bioscience, Inc., batch number ALKm_20110923); DTT (Gibco BRL company, catalog No. 15508-012); MgCl2 (Sigma Aldrich company, catalog No. M-2670); ATP (Sigma Aldrich company, catalog No. A-7699, batch number 051M7014V); DMSO (AMRESCO company, catalog No. 0231); EDTA (AMRESCO company, catalog No. 0105); 96 wells plates (for diluting compounds) (CITOTEST company, catalog No. Ref36020096D); OptiPlate™-384 (White), PerkinElmer company, catalog No. P12-004)
(§3) ? experimental condition ? Compounds (the final concentration of DMSO was 1%), the reaction substrate (the final concentration was 1 μM), ATP (the final concentration was 5 μM), and L1196M mutant ALK kinases (the final concentration was 1 ng/μl) were mixed respectively in a final volume of 10 μl reaction system (containing 5 mM MgCl2, 1× Kinase buffer, and 1 mM DTT). The mixture was reacted at 30° C. for 35 minutes after shaking for 30 seconds. After completion of the reaction, each well was added with 5 μl Sa-XL665 and 5 μl TK Antibody-Eu(K), and placed in the dark for 60 minutes to end the reaction after uniform mixing. The data was read from PerkinElmer EnVision plate reader ([…]), the 665/615 ratio was calculated, and the data was analyzed.
(§4) ? tested samples ? Compounds from the examples.
(§5) ? data analysis ? Minimum 665/615 ratio (Rmin, 665/615 ratio under the condition that 10.4 μM positive control drug LDK-378 was added)
(§6) Maximum 665/615 ratio (Rmax, 665/615 ratio under the condition that no compound was added)
(§7) Tested 665/615 ratio (Rcompound, 665/615 ratio under the condition that a given concentration of compound was added) Inhibition rate (%)=[1−(Rcompound−Rmin)/(Rmax−Rmin)]×100
(§8) ? data processing ? IC50 of compounds was calculated by using XLfit program in Excel.

Wild Type ALK kinase = target: T3, Wild Type ALK kinase (Homo sapiens, UniProt Q9UM73); experiment: HTRF KinEASE-TK assay, inhibitory activity on wild type ALK kinase; assay type: biochemical; conditions: wild type ALK 1 ng/μl, substrate 1 μM, 30° C. 35 minutes, read-out: Inhibition on ALK kinases (wildtype), IC50
T3 construct: purchased Sino-US Crown Bioscience, Inc. batch number ALK 20110607
T3 sequence (Q9UM73 19-1620): as the sequence (Q9UM73 19-1620 L1196M) above, with M1178L counted along it
Source text: 1. Inhibitory Activities of the Compounds of the Present Invention on Wild Type ALK Kinases
? experimental method ? HTRF KinEASE™-TK Assay kit from Cisbio company was used to detect inhibitory activities of the compounds on wildtype ALK kinases (wild type ALK kinases).
as §1
as §2, with “Wild Type” for “L1196M mutant”, “ALK 20110607);” for “ALKm_20110923);”, “A-7699);” for “A-7699, batch number 051M7014V);”
as §3, with “[…]),” for “5 μM),”, “Wildtype” for “L1196M mutant”
as §4, §5, §6, §7, §8

cytochrome P450 2D6 = cytochrome P450 2D6 (Homo sapiens, UniProt P10635); experiment: Inhibitory activity on cytochrome P450 2D6; assay type: in vitro ADME; conditions: no significant inhibition
cytochrome P450 2D6, sequence (P10635 whole entry): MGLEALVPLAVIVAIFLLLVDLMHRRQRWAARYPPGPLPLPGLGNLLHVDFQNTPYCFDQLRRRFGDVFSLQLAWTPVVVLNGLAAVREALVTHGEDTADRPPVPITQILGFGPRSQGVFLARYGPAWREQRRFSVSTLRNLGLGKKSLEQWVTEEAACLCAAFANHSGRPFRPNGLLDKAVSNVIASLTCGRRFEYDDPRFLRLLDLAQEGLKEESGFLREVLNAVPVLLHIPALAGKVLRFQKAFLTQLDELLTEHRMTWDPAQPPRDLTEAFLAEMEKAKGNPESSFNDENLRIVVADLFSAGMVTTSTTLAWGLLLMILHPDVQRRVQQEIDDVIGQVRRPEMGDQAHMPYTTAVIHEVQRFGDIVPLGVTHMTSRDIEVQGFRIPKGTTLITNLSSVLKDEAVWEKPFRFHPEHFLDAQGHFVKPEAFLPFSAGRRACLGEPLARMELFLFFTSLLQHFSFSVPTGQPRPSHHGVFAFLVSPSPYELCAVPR

NCI-H2228 cell line = experiment: CellTiter-Glo cell proliferation inhibition on NCI-H2228 cell line; assay type: cell-based; conditions: Homo sapiens, NCI-H2228 cells, 5000 cells/well, 4 days drug treatment
In short: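 NCI-H2228 cells, 5000/well in RPMI-1640 + 10% FBS, treated with compounds 2 h after seeding (0.5% DMSO final) for 4 days at 37° C. Viability by CellTiter-Glo luminescence; inhibition relative to DMSO control, IC50 from curve fit.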

Karpas-299 cell line = experiment: CellTiter-Glo cell proliferation inhibition on Karpas-299 cell line; assay type: cell-based; conditions: Homo sapiens, 96 h, Karpas-299 cells, 5000 cells/well, 4 days drug treatment
Experimental: 4. Cell Proliferation Inhibitory Activities of the Compounds of the Present Invention on Karpas-299 Cell Line
? experimental method ? CellTiter-Glo® Luminescent Cell Viability Assay kit from Promega company was used to detect cell proliferation inhibitory activities of the compounds on Karpas-299 cell line.
? instrument ? Envision 2104 plate reader from PerKinElmer company; Vi-Cell XR cell counter from Beckman Counter company; MCO-18AIC CO2 incubator from SANYO company.
? experiment material ? CellTiter-Glo® Luminescent Cell Viability Assay Kit (Promega company, catalog No. G7573); Karpas-299 cell line (DSMZ, catalog No. ACC31); RPMI-1640 medium (HyClone company, catalog No. SH30809.01B); fetal bovine serum (FBS) (Gibco company, catalog No. 10099-141); PBS (HyClone company, catalog No. SH30256.01B); 96 wells cell culture plate (Corning company, catalog No. 3610); DMSO (AMRESCO company, catalog No. 0231); 96 wells plates (for diluting compounds) (CITOTEST company, catalog No. Ref36020096D);
? experimental condition ? Karpas-299 cells in exponential growth phase were collected and viable cells were counted by Vi-Cell XR cell counter. Cell suspension was adjusted to 62500 cells/ml with culture medium (RPMI-1640+10% FBS). 80 μl cell suspension was added into each well of 96 wells cell culture plate so that so that the final cell number of Karpas-299 cells was 5000 cells/well. The cells were cultivated in an incubator with an atmosphere of 37° C., 5% CO2 and 95% humidity for 2 hours and then each well was added with 20 μl compounds in RPMI-1640 medium solution (the final concentration of DMSO was 0.5%). 4 days after drug treatment, each well was added with 50 μl CellTiter-Glo solution which was previously thawed and equilibrated to room temperature, and mixed for 2 minutes with microplate shaker. After placing at room temperature for 10 minutes, luminescence reading value was measured with PerkinElmer Envision 2104 plate reader and the data was analyzed.
? tested samples ? Compounds of the examples.
Luminescence value of DMSO solvent control (Vvehicle control, which is the mean luminescence value from DMSO solvent control group)
Tested luminescence value (Vsample, which is the luminescence value from given concentration of compounds group) Inhibition rate (%)=(1−Vsample/Vvehicle control)×100
as §8

| IC50 (cytochrome P450 1A2) [nM] | IC50 (cytochrome P450 2C19) [nM] | IC50 (cytochrome P450 3A4) [nM] | IC50 (cytochrome P450 2C9) [nM] | IC50 (L1196M mutant ALK kinase) [nM] | IC50 (Wild Type ALK kinase) [nM] | IC50 (cytochrome P450 2D6) [nM] | IC50 (NCI-H2228 cell line; NCI-H2228, 96 h) [nM] | IC50 (Karpas-299 cell line) [nM] | Compound | IC50 (NCI-H2228 cell line; 96 h) [nM] |
| --- | --- | --- | --- | --- | --- | --- | --- | --- | --- | --- |
| > 10000 | > 10000 | > 10000 | > 10000 | 4 | 3 | > 10000 | – | – | CC(C)S(=O)(=O)c1nn(C)cc1Nc1nc(Nc2cc(F)c(C3CCN(C)CC3)cc2OC2CC2)ncc1Cl [Final product 44] | – |
| > 10000 | > 10000 | > 10000 | > 10000 | 4 | 2 | > 10000 | – | – | Cc1cc(Nc2ncc(Cl)c(Nc3cn(C)nc3S(=O)(=O)C(C)C)n2)c(OC2CC2)cc1C1CCN(C)CC1 [Final product 51] | – |
| – | – | – | – | – | – | – | 156 | 52 | COC1CN(C)CCC1c1cc(OC2CC2)c(Nc2ncc(Cl)c(Nc3cn(C)nc3S(=O)(=O)CC(C)C)n2)cc1C (stereo not drawn) [Final product 59] | – |
| > 10000 | > 10000 | > 10000 | > 10000 | – | – | > 10000 | 28 | – | Cc1cc(Nc2ncc(Cl)c(Nc3cn(C)nc3S(=O)(=O)C(C)C)n2)c(OC2CC2)cc1C1CCCN(C)C1 (stereo not drawn) [Final product 60] | – |
| > 10000 | > 10000 | > 10000 | > 10000 | 8 | 4 | > 10000 | – | – | Cc1cc(Nc2ncc(Cl)c(Nc3cn(C)nc3S(=O)(=O)C(C)C)n2)c(OC(C)C)cc1C1CCN(C)CC1 [Final product 80] | – |
| – | – | – | – | – | – | – | 53 | 11 | COCCN1CCC(c2cc(OC3CC3)c(Nc3ncc(Cl)c(Nc4cn(C)nc4S(=O)(=O)CC(C)C)n3)cc2C)CC1 [Final product 83] | – |
| > 10000 | > 10000 | > 10000 | > 10000 | – | – | > 10000 | 154 | – | Cc1cc(Nc2ncc(Cl)c(Nc3cn(C)nc3S(=O)(=O)C(C)C)n2)c(OC(C)C)cc1C1CC(C)N(C)C(C)C1 (stereo not drawn) [Final product 97] | – |
| – | – | – | – | – | – | – | 61 | 6 | Cc1cc(Nc2ncc(Cl)c(Nc3cn(C)nc3S(=O)(=O)C(C)C)n2)c(OC2CC2)cc1C1CCN(C)C(C)(C)C1 (stereo not drawn) [Final product 100] | – |
| – | – | – | – | – | – | – | 66 | 10 | Cc1cc(Nc2ncc(Cl)c(Nc3cn(C)nc3S(=O)(=O)C(C)C)n2)c(OC2CC2)cc1C1CCN(C)C(=O)C1 (stereo not drawn) [Final product 103] | – |
| > 10000 | > 10000 | > 10000 | > 10000 | – | – | > 10000 | 141 | – | Cc1cc(Nc2ncc(Cl)c(Nc3cn(C)nc3S(=O)(=O)C(C)C)n2)c(OC2CC2)cc1C1CCC(N2CCN(C)CC2)CC1 (stereo not drawn) [Final product 202] | – |

| Compound | IC50 (cytochrome P450 1A2) [nM] | IC50 (cytochrome P450 2C19) [nM] | IC50 (cytochrome P450 3A4) [nM] | IC50 (cytochrome P450 2C9) [nM] | IC50 (L1196M mutant ALK kinase) [nM] | IC50 (Wild Type ALK kinase) [nM] | IC50 (cytochrome P450 2D6) [nM] | IC50 (NCI-H2228 cell line; NCI-H2228, 96 h) [nM] | IC50 (Karpas-299 cell line) [nM] | IC50 (NCI-H2228 cell line; 96 h) [nM] |
| --- | --- | --- | --- | --- | --- | --- | --- | --- | --- | --- |
| CCN1CCC(c2cc(OC3CC3)c(Nc3ncc(Cl)c(Nc4cn(C)nc4S(=O)(=O)C(C)C)n3)cc2C)CC1 [Final product 114, 5-chloro-N^2-[2-cyclopropoxy-4-(1-ethylpiperidin-4-yl)-5-methylphenyl]-N^4-[1-methyl-3-(isopropylsulfonyl)-1H-pyrazol-4-yl]-pyrimidin-2,4-diamine] | > 10000 | > 10000 | > 10000 | > 10000 | – | – | > 10000 | – | 10 | 70 |

Source: patent US10023593B2, “ALK kinase inhibitor, and preparation method and uses thereof” (BEIJING PEARL BIOTECHNOLOGY LIMITED LIABILITY COMPANY, priority 2014, dated 2018)
